In patent US10703764B2, “Benzopiperazine compositions as BET bromodomain inhibitors” (FORMA Therapeutics, Inc., priority 2013, dated 2020):
pIC50: −log10 of the molar value.

Tests used:
BRD4 BD2 = molecular target: T1, BRD4 BD2 (Homo sapiens, UniProt O60885); test: AlphaScreen binding assay, BRD4 Bromodomain 2
T1 construct: made in house
Summary of the method: (§1)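 An AlphaScreen competition format was used with His-BRD4 BD1 or BD2 and biotin-H4 K5/8/12/16-acetyl peptide, each at matched final levels of 50 nM (BD1) or 100 nM (BD2). Incubation in HEPES/NaCl buffer with 0.1% BSA and 0.01% Triton X-100 ran ≥1 h before IC50 determination.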

BRD4 BD1 = molecular target: T2, BRD4 BD1 (Homo sapiens, UniProt O60885); test: AlphaScreen binding assay, BRD4 Bromodomain 1
T2 construct: made in house
Summary of the method: as §1

MV4-11 cells = test: Oncology cell growth assay (3-day proliferation, CellTiter-Glo); type: cell-based; details: Homo sapiens, MV4-11, 72 h, AML cell line MV4-11, 72 hours, compounds grouped by IC50 range, read-out: MV4-11 IC50 (inhibition of proliferation, gIC50)
Summary of the method: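 72 h, 37° C, 5% CO2; MV4-11, 3000 cells/well, RPMI 1640 + 10% FBS. Compound final 10, 3.3, 1.1, 0.37, 0.12, 0.041, 0.013, 0.0045 μM. Readout CellTiter-Glo luminescence; gIC50 by 4-parameter logistic fit, normalised to DMSO and no-cell background.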

| Compound | pIC50 (BRD4 BD2) | pIC50 (BRD4 BD1) | pIC50 (MV4-11 cells) |
| --- | --- | --- | --- |
| CC(=O)N1c2ccc(-c3cnn(Cc4ccno4)c3)cc2N(C(=O)OC(C)C)C[C@@H]1C [Example I-131, (S)-isopropyl 4-acetyl-7-(1-(isoxazol-5-ylmethyl)-1H-pyrazol-4-yl)-3-methyl-3,4-dihydroquinoxaline-1(2H)-carboxylate] | 6.30 to 7.30 | 6.00 to 7.00 | 6.30 to 7.00 |
| CCN(CC)C(=O)c1ccc(-c2ccc3c(c2)N(C(=O)OC(C)C)C[C@H](C)N3C(C)=O)cc1 [Example I-536] | > 7.30 | 6.00 to 7.00 | 6.30 to 7.00 |
| CC(=O)N1c2ccc(-c3cnn(CC4CCC4)c3)cc2N(C(=O)C2CC2)C[C@@H]1C [Example I-656] | 6.30 to 7.30 | 6.00 to 7.00 | 6.30 to 7.00 |
| COc1ccc(-c2ccc3c(c2)N(C(=O)c2ccco2)C[C@H](C)N3C(C)=O)cc1 [Example I-807] | > 7.30 | 6.00 to 7.00 | 6.30 to 7.00 |
| CCCS(=O)(=O)c1ccc(-c2ccc3c(c2)N(C(=O)OC2CCOCC2)C[C@H](C)N3C(C)=O)cc1 [Example I-1236] | 6.30 to 7.30 | 6.00 to 7.00 | 6.30 to 7.00 |
| CCOC(=O)N1C[C@H](C)N(C(C)=O)c2ccc(-c3cccc(NS(=O)(=O)CC)c3)cc21 [Example I-1056] | 6.30 to 7.30 | 5.00 to 6.00 | < 6.30 |
| CC(=O)N1c2ccc(-c3ccc(S(=O)(=O)CC4CC4)cc3)cc2N(C(=O)C2CCC2)C[C@@H]1C [Example I-1075] | 6.30 to 7.30 | 5.00 to 6.00 | < 6.30 |
| CCOC(=O)N1C[C@H](C)N(C(C)=O)c2ccc(-c3cccc(N4CCCS4(=O)=O)c3)cc21 [Example I-1162] | 6.30 to 7.30 | 6.00 to 7.00 | < 6.30 |
| CCS(=O)(=O)c1ccc(-c2ccc3c(c2)N(C(=O)OC(C)C)C[C@H](C)N3C(C)=O)cc1 [Example I-1030] | 6.30 to 7.30 | 6.00 to 7.00 | 6.30 to 7.00 |
| CC(=O)N1c2ccc(-c3ccc(S(C)(=O)=O)cc3)cc2N(C(=O)C2CC2)C[C@@H]1C [Example I-781] | 6.30 to 7.30 | 5.00 to 6.00 | < 6.30 |
| CC(=O)N1c2ccc(-c3cnn(C4CCOCC4)c3)cc2N(C(=O)OC2CCC2)C[C@@H]1C [Example I-39, (S)-cyclobutyl 4-acetyl-3-methyl-7-(1-(tetrahydro-2H-pyran-4-yl)-1H-pyrazol-4-yl)-3,4-dihydroquinoxaline-1(2H)-carboxylate] | > 7.30 | 6.00 to 7.00 | > 7.00 |
| CCS(=O)(=O)Nc1cccc(-c2ccc3c(c2)N(C(=O)C2CC2)C[C@H](C)N3C(C)=O)c1 [Example I-1054] | 6.30 to 7.30 | 5.00 to 6.00 | 6.30 to 7.00 |
| CC(=O)N1c2ccc(-c3cnn(C4CC4)c3)cc2N(c2ncc3ccccc3n2)C[C@@H]1C [Example I-51, (S)-1-(6-(1-cyclopropyl-1H-pyrazol-4-yl)-2-methyl-4-(quinazolin-2-yl)-3,4-dihydroquinoxalin-1(2H)-yl)ethanone] | 6.30 to 7.30 | 6.00 to 7.00 | 6.30 to 7.00 |
| COC(=O)N1c2ccc(-c3cnn(CCN4CCCC4=O)c3)cc2N(C(=O)OC(C)C)C[C@@H]1C [Example I-628] | 6.30 to 7.30 | 6.00 to 7.00 | 6.30 to 7.00 |
| CC(=O)N1c2ccc(-c3cnn(CCO)c3)cc2N(C(=O)OC2CCC(F)(F)CC2)C[C@@H]1C [Example I-34, (S)-4,4-difluorocyclohexyl 4-acetyl-7-(1-(2-hydroxyethyl)-1H-pyrazol-4-yl)-3-methyl-3,4-dihydroquinoxaline-1(2H)-carboxylate] | 6.30 to 7.30 | 6.00 to 7.00 | 6.30 to 7.00 |
| CCCS(=O)(=O)c1ccc(-c2ccc3c(c2)N(C(=O)C2CC2)C[C@H](C)N3C(C)=O)cc1 [Example I-1070] | 6.30 to 7.30 | 5.00 to 6.00 | 6.30 to 7.00 |
| CC(=O)N1c2ccc(-c3ccc(S(=O)(=O)CC(C)C)cc3)cc2N(C(=O)C2CC2)C[C@@H]1C [Example I-1078] | 6.30 to 7.30 | 5.00 to 6.00 | 6.30 to 7.00 |
| CC(=O)N1c2ccc(-c3ccc(N(C)S(C)(=O)=O)cc3)cc2N(C(=O)OC(C)C)C[C@@H]1C [Example I-346] | 6.30 to 7.30 | 6.00 to 7.00 | 6.30 to 7.00 |
| CCOC(=O)N1C[C@H](C)N(C(C)=O)c2ccc(-c3ccc(S(N)(=O)=O)cc3)cc21 [Example I-1068] | 6.30 to 7.30 | 5.00 to 6.00 | < 6.30 |
| CC(=O)N1c2ccc(-c3cc[nH]n3)cc2N(C(=O)c2ccco2)C[C@@H]1C [Example I-14, (S)-1-(4-(furan-2-carbonyl)-2-methyl-6-(1H-pyrazol-3-yl)-3,4-dihydro-quinoxalin-1(2H)-yl)ethanone] | > 7.30 | 5.00 to 6.00 | 6.30 to 7.00 |
| CC(=O)N1c2ccc(-c3ccc4c(c3)CS(=O)(=O)N4)cc2N(C(=O)C2CC2)C[C@@H]1C [Example I-1178] | 6.30 to 7.30 | 6.00 to 7.00 | < 6.30 |

| Compound | pIC50 (BRD4 BD2) | pIC50 (BRD4 BD1) | pIC50 (MV4-11 cells) |
| --- | --- | --- | --- |
| CCS(=O)(=O)Nc1ccc(-c2ccc3c(c2)N(C(=O)C2CCC2)C[C@H](C)N3C(C)=O)cc1 [Example I-1136] | 6.30 to 7.30 | 6.00 to 7.00 | 6.30 to 7.00 |
| CNS(=O)(=O)c1ccc(-c2ccc3c(c2)N(C(=O)OC(C)C)C[C@H](C)N3C(C)=O)cc1 [Example I-1122] | 6.30 to 7.30 | 6.00 to 7.00 | 6.30 to 7.00 |
| COC(=O)c1ccc(OC(=O)N2C[C@H](C)N(C(C)=O)c3ccc(-c4cnn(C5CC5)c4)cc32)cc1 [Example I-262] | > 7.30 | 6.00 to 7.00 | 6.30 to 7.00 |
| CC(=O)N1c2ccc(-c3ccc(NS(C)(=O)=O)c(F)c3)cc2N(C(=O)OC(C)C)C[C@@H]1C [Example I-1183] | > 7.30 | 6.00 to 7.00 | 6.30 to 7.00 |
| CC(=O)N1c2ccc(-c3cnn(Cc4cnccn4)c3)cc2N(C(=O)OC(C)C)C[C@@H]1C [Example I-116, (S)-isopropyl 4-acetyl-3-methyl-7-(1-(pyrazin-2-ylmethyl)-1H-pyrazol-4-yl)-3,4-dihydroquinoxaline-1(2H)-carboxylate] | 6.30 to 7.30 | 6.00 to 7.00 | 6.30 to 7.00 |
| CC(=O)N1c2ccc(-c3cn(C)nn3)cc2N(C(=O)OC(C)C)C[C@@H]1C [Example I-465] | 6.30 to 7.30 | 6.00 to 7.00 | 6.30 to 7.00 |
| CCOC(=O)N1C[C@H](C)N(C(C)=O)c2ccc(-c3ccc(NS(C)(=O)=O)c(C)c3)cc21 [Example I-1173] | 6.30 to 7.30 | 6.00 to 7.00 | 6.30 to 7.00 |
| CC(=O)N1c2ccc(-c3ccc(S(=O)(=O)C(C)C)cc3)cc2N(C(=O)OC(C)C)C[C@@H]1C [Example I-1065] | 6.30 to 7.30 | 6.00 to 7.00 | 6.30 to 7.00 |
| CCOC(=O)N1C[C@H](C)N(C(C)=O)c2ccc(-c3ccc(OC)c(NS(C)(=O)=O)c3)cc21 [Example I-1141] | 6.30 to 7.30 | 6.00 to 7.00 | 6.30 to 7.00 |
| CC(=O)N1c2ccc(-c3ccc(S(=O)(=O)n4cccn4)cc3)cc2N(C(=O)OC2CCCCC2)C[C@@H]1C [Example I-1259] | 6.30 to 7.30 | 6.00 to 7.00 | 6.30 to 7.00 |
| CC(=O)N1c2ccc(-c3ccc(S(C)(=O)=O)cc3)cc2N(C(=O)OCC(C)C)C[C@@H]1C [Example I-250] | 6.30 to 7.30 | 6.00 to 7.00 | 6.30 to 7.00 |
| CC(=O)N1c2ccc(-c3cnn(C4CC4)c3)cc2N(C(=O)Oc2ccc3ccncc3c2)C[C@@H]1C [Example I-1206] | > 7.30 | 6.00 to 7.00 | 6.30 to 7.00 |
| COC(=O)N1c2ccc(-c3cnn(C4CCOCC4)c3)cc2N(C(=O)OC(C)C)C[C@@H]1C [Example I-322] | 6.30 to 7.30 | 6.00 to 7.00 | 6.30 to 7.00 |
| CC(=O)N1c2ccc(-c3cccc(S(C)(=O)=O)c3)cc2N(C(=O)C2CCC2)C[C@@H]1C [Example I-1051] | 6.30 to 7.30 | 5.00 to 6.00 | < 6.30 |
| CC(=O)N1c2ccc(-c3ccc(C(=O)N4CCC(N)CC4)cc3)cc2N(C(=O)OC(C)C)C[C@@H]1C [Example I-590] | 6.30 to 7.30 | 6.00 to 7.00 | 6.30 to 7.00 |
| CC(=O)N1c2ccc(-c3cccc(N4CCCS4(=O)=O)c3)cc2N(C(=O)C2CC2)C[C@@H]1C [Example I-1152] | 6.30 to 7.30 | 5.00 to 6.00 | 6.30 to 7.00 |
| C[C@H]1CN(C(=O)OC2CCCC2)c2cc(-c3cnn(C4CC4)c3)ccc2N1C(=O)C1CC1 [Example I-41, (S)-cyclopentyl 4-(cyclopropanecarbonyl)-7-(1-cyclopropyl-1H-pyrazol-4-yl)-3-methyl-3,4-dihydroquinoxaline-1 (2H)-carboxylate] | 6.30 to 7.30 | 6.00 to 7.00 | 6.30 to 7.00 |
| CC(=O)N1c2ccc(-c3cnn(C4CS(=O)(=O)C4)c3)cc2N(C(=O)OC2CCOCC2)C[C@@H]1C [Example I-37, oxan-4-yl (3S)-4-acetyl-7-[1-(1,1-dioxo-1λ^6-thietan-3-yl)-1H-pyrazol-4-yl]-3-methyl-1,2,3,4-tetrahydroquinoxaline-1-carboxylate] | 6.30 to 7.30 | 6.00 to 7.00 | 6.30 to 7.00 |
| CC(=O)N1c2ccc(-c3ccc(S(=O)(=O)C(C)C)cc3)cc2N(C(=O)c2ccco2)C[C@@H]1C [Example I-288] | > 7.30 | 5.00 to 6.00 | 6.30 to 7.00 |
| CC(=O)N1c2ccc(-c3cnn(CC(=O)N4CCC4)c3)cc2N(C(=O)OC(C)C)C[C@@H]1C [Example I-667] | 6.30 to 7.30 | 6.00 to 7.00 | 6.30 to 7.00 |
| CCOC(=O)N1C[C@H](C)N(C(C)=O)c2ccc(-c3ccc4c(c3)CCCN4S(C)(=O)=O)cc21 [Example I-1159] | 6.30 to 7.30 | 6.00 to 7.00 | 6.30 to 7.00 |
